# Reference: patent US20250179059A1 (The Regents of the University of California, priority 2021, published 2025)
# Tests used:
# [1] = target: T1, human BRD4 bromodomain II (Homo sapiens, UniProt O60885); experiment: Bromodomain binding assay (AlphaScreen), BRD4 BDII; conditions: AlphaScreen assay, Table C2; read-out: BRD4 BDII IC50
# T1 construct: human BRD4 bromodomain II [based on Genbank NM_058243, residues 349-460]; host or cells: E. coli
# Method in brief: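 AlphaScreen competition: His6-BRD4 BDI (aa 44-170) or BDII (aa 349-460) vs biotin-H4(1-21) K5/K8/K12/K16Ac peptide; Ni-chelate acceptor/streptavidin donor beads. HEPES pH 7.5, NaCl, CHAPS, BSA, 1% DMSO; RT. 10-pt 3-fold titration, % peptide binding fitted → IC50.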
# [2] = test system: human SKM-1 acute myeloid leukemia cells; experiment: SKM-1 antiproliferation cell-based assay (ATPlite)
# Method: The cell-based assay indirectly measures cell density (and therefore proliferation and/or survival) by detecting total ATP concentration in a homogeneous format. Briefly, human SKM-1 acute myeloid leukemia cells (Leibniz Institute DSMZ #ACC 547) proliferating in log phase are collected by centrifugation, re-suspended in culture media (RPMI 1640/15% FBS/100 U/mL penicillin/100 μg/mL streptomycin) and diluted to 34722 cells/mL in media after counting. Then 180 μL cells are plated per well into a 96-well tissue-culture treated, clear bottom plate (Coming #3603). A 96-well compound plate (Corning #3357) is then generated by serial dilution of compounds into DMSO over nine concentrations and adding separate negative (DMSO) and positive control (reference compound) wells. Each compound concentration is tested in triplicate. First, 1 μL from each well of the compound plate is added to 99 μL culture media in an intermediate plate and mixed by pipetting. Then 20 μL of the diluted compounds in media are added to the assay plate containing the cells. The assay plate is maintained for 4 days in a standard cell culture incubator. At the end of the incubation period, 100 μL ATPlite Istep (PerkinElmer) is added to the assay plate wells, and the resulting luminescence is detected using an Infinite M1000 or a Spark multimode plate reader (Tecan). Data analysis is performed in Prism (GraphPad Software). For curve fitting, a non-linear regression, variable slope equation is used to calculate cellular IC50s.
# [3] = Homo sapiens, SKM-1, SKM-1 antiproliferation assay
IC50 [1] [nM],"GI50 [2, 3] [nM]",SMILES,also measured
10 to 100,,"CC(=O)Nc1ccc(-c2cccc(-c3cccc(N4CC5(CNC5)C4)c3)c2O)cc1F [Example 219, N-(3-fluoro-2′-hydroxy-3″-(2,6-diazaspiro[3.3]heptan-2-yl)-[1,1′:3′,1″-terphenyl]-4-yl)acetamide]",
10 to 100,,"CC(=O)Nc1ccc(-c2cccc(-c3cccc(N4CC(CN)C4)c3)c2O)cc1F [Example 220, N-(3″-(3-(aminomethyl)azetidin-1-yl)-3-fluoro-2′-hydroxy-[1,1′:3′,1″-terphenyl]-4-yl)acetamide]",
1 to 10,,"CC(=O)Nc1ccc(-c2cccc(-c3cccc(N4CCC5(CCNC5)C4)c3)c2O)cc1F (centres unmarked) [Example 221, N-(3-fluoro-2′-hydroxy-3″-(2,7-diazaspiro[4.4]nonan-2-yl)-[1,1′:3′,1″-terphenyl]-4-yl)acetamide]",
10 to 100,,"O=C1CCCCN1c1ccc(-c2cccc(-c3cccc(N4CCNCC4)c3)c2O)cc1F [Example 223, 1-(3-fluoro-2′-hydroxy-3″-(piperazin-1-yl)-[1,1′:3′,1″-terphenyl]-4-yl)piperidin-2-one]",
> 100,,"CC(=O)Nc1ccc(-c2cccc(-c3ccnc(N4CC(O)C4)c3)c2O)cc1F [Example 225, N-(3-fluoro-2′-hydroxy-3′-(2-(3-hydroxyazetidin-1-yl)pyridin-4-yl)-[1,1′-biphenyl]-4-yl)acetamide]",
> 100,,"CC(=O)Nc1ccc(-c2cccc(-c3cccc(-c4nn[nH]n4)c3)c2O)cc1F [Example 227, N-(3-fluoro-2′-hydroxy-3″-(2H-tetrazol-5-yl)-[1,1′:3′,1″-terphenyl]-4-yl)acetamide]",
1 to 10,,"O=C1NCCN1c1ccc(-c2cccc(-c3ccnc(N4CCNCC4)c3)c2O)cc1Cl [Example 228, 1-(3-chloro-2′-hydroxy-3′-(2-(piperazin-1-yl)pyridin-4-yl)-[1,1′-biphenyl]-4-yl)imidazolidin-2-one]",
10 to 100,,"CC(=O)Nc1ccc(-c2cccc(-c3cccc(-c4c[nH]cn4)c3)c2O)cc1F [Example 229, N-(3-fluoro-2′-hydroxy-3″-(1H-imidazol-4-yl)-[1,1′:3′,1″-terphenyl]-4-yl)acetamide]",
10 to 100,,"CC(=O)Nc1ccc(-c2cccc(-c3ccnc(N4CC(N)C4)c3)c2O)cc1F [Example 232, N-(3′-(2-(3-aminoazetidin-1-yl)pyridin-4-yl)-3-fluoro-2′-hydroxy-[1,1′-biphenyl]-4-yl)acetamide]",
> 100,,"CC(=O)Nc1ccc(-c2cccc(-c3cc(N4CCNCC4)ccn3)c2O)cc1F [Example 233, N-(3-fluoro-2′-hydroxy-3′-(4-(piperazin-1-yl)pyridin-2-yl)-[1,1′-biphenyl]-4-yl)acetamide]",
1 to 10,,"CC(=O)Nc1ccc(-c2cccc(-c3ccc(Cl)c(N4CCNCC4)c3)c2O)cc1F [Example 241, N-(4″-chloro-3-fluoro-2′-hydroxy-3″-(piperazin-1-yl)-[1,1′:3′,1″-terphenyl]-4-yl)acetamide]",
1 to 10,,"CC(=O)Nc1ccc(-c2cc(F)cc(-c3ccc(Cl)c(N4CCNCC4)c3)c2O)cc1F [Example 242, N-(4″-chloro-3,5′-difluoro-2′-hydroxy-3″-(piperazin-1-yl)-[1,1″-terphenyl]-4-yl)acetamide]",
> 100,,"CC(=O)Nc1ccc(-c2cccc(-c3cccc(-c4cn[nH]n4)c3)c2O)cc1F [Example 243, N-(3-fluoro-2′-hydroxy-3″-(2H-1,2,3-triazol-4-yl)-[1,1′:3′,1″-terphenyl]-4-yl)acetamide]",
> 100,,"CC(=O)Nc1ccc(-c2cccc(-c3cccc(-c4cn[nH]c4)c3)c2O)cc1F [Example 246, N-(3-fluoro-2′-hydroxy-3″-(1H-pyrazol-4-yl)-[1,1′:3′,1″-terphenyl]-4-yl)acetamide]",
1 to 10,,"CC(=O)Nc1ccc(-c2cc(F)cc(-c3ccc(F)c(C4=CCNCC4)c3)c2O)cc1F [Example 247, N-(3,4″,5′-trifluoro-2′-hydroxy-3″-(1,2,3,6-tetrahydropyridin-4-yl)-[1,1′:3′,1″-terphenyl]-4-yl)acetamide]",
> 100,,"CC(=O)Nc1ccc(-c2cccc(-c3ccnc(N4CCNCC4)c3)c2C(F)F)cc1F [Example 250, N-(2′-(difluoromethyl)-3-fluoro-3′-(2-(piperazin-1-yl)pyridin-4-yl)-[1,1′-biphenyl]-4-yl)acetamide]",
,,Cc1ncc(-c2cc(F)cc(-c3ccc(-n4ccn(C)c4=O)c(Cl)c3)c2O)cc1N1CC2(CC2)[C@](C)(O)C1 [Example 874],GI50 ([2]; SKM-1 antiproliferation assay): 0.3 to 30 nM
,30 to 300,"Cc1cc(-c2ccc(N3CCCC3=O)c(Cl)c2)c(O)c(-c2cccc(N3CCN(C(C)(C)C)CC3)c2)n1 [Example 1041, 1-(4-(2-(3-(4-(tert-butyl)piperazin-1-yl)phenyl)-3-hydroxy-6-methylpyridin-4-yl)-2-chlorophenyl)pyrrolidin-2-one]",
,300 to 3000,"Cn1ccn(-c2ccc(-c3cc(C=O)cc(-c4cccc(N5CCN(C(C)(C)C)CC5)c4)c3O)cc2Cl)c1=O [Example 1042, 3″-(4-(tert-Butyl)piperazin-1-yl)-3-chloro-2′-hydroxy-4-(3-methyl-2-oxo-2,3-dihydro-1H-imidazol-1-yl)-[1,1′:3′,1″-terphenyl]-5′-carbaldehyde]",
,30 to 300,"Cc1ncc(-c2nc(F)cc(-c3ccc(-n4ccn(C)c4=O)c(Cl)c3)c2O)cc1N1CCN(C(C)(C)C)CC1 [Example 1043, 1-(4-(5′-(4-(tert-Butyl)piperazin-1-yl)-6-fluoro-3-hydroxy-6′-methyl-[2,3′-bipyridin]-4-yl)-2-chlorophenyl)-3-methyl-1H-imidazol-2(3H)-one]",
,0.3 to 30,"COc1ncc(-c2nc(F)cc(-c3ccc(-n4ccn(C)c4=O)c(Cl)c3)c2O)cc1N1CCN(C(C)(C)C)CC1 [Example 1044, 1-(4-(5′-(4-(tert-Butyl)piperazin-1-yl)-6-fluoro-3-hydroxy-6′-methoxy-[2,3′-bipyridin]-4-yl)-2-chlorophenyl)-3-methyl-1H-imidazol-2(3H)-one]",
,30 to 300,"CC(C)(C)N1CCN(c2cccc(-c3cc(F)cc(-c4ccc(N5CCCC5=O)c(Cl)c4)c3O)c2)CC1 [Example 1045, 1-(3″-(4-(tert-Butyl)piperazin-1-yl)-3-chloro-5′-fluoro-2′-hydroxy-[1,1′:3′,1″-terphenyl]-4-yl)pyrrolidin-2-one]",
,0.3 to 30,"Cc1cc(-c2ccc(N3CCN(C)C3=O)c(Cl)c2)c(O)c(-c2cccc(N3CCN(C(C)(C)C)CC3)c2)n1 [Example 1046, 1-(4-(2-(3-(4-(tert-Butyl)piperazin-1-yl)phenyl)-3-hydroxy-6-methylpyridin-4-yl)-2-chlorophenyl)-3-methylimidazolidin-2-one]",
,0.3 to 30,"[2H]C([2H])([2H])n1ccn(-c2ccc(-c3cc(F)nc(-c4cccc(N5CCN(C(C)(C)C)CC5)c4)c3O)cc2Cl)c1=O [Example 1047, 1-(4-(2-(3-(4-(tert-butyl)piperazin-1-yl)phenyl)-6-fluoro-3-hydroxypyridin-4-yl)-2-chlorophenyl)-3-(methyl-d3)-1,3-dihydro-2H-imidazol-2-one]",
,30 to 300,"Cc1cc(-c2ccc(-n3ccn(C)c3=O)c(Cl)c2)c(O)c(-c2ccc(=O)n(C3CCN(C(C)C)CC3)c2)n1 [Example 1048, 4-(3-Chloro-4-(3-methyl-2-oxo-2,3-dihydro-1H-imidazol-1-yl)phenyl)-3-hydroxy-1′-(1-isopropylpiperidin-4-yl)-6-methyl-[2,3′-bipyridin]-6′(1′H)-one]",
,30 to 300,"Cn1ccn(-c2ccc(-c3cc(F)nc(-c4cnc(O)c(N5CCN(C(C)(C)C)CC5)c4)c3O)cc2Cl)c1=O [Example 1049, 1-(4-(5′-(4-(tert-butyl)piperazin-1-yl)-6-fluoro-3,6′-dihydroxy-[2,3′-bipyridin]-4-yl)-2-chlorophenyl)-3-methyl-1,3-dihydro-2H-imidazol-2-one]",
,0.3 to 30,"Cc1cc(-c2cc(F)nc(-c3cccc(N4CCN(C(C)(C)C)CC4)c3)c2O)ccc1-n1ccn(C)c1=O [Example 1050, 1-(4-(2-(3-(4-(tert-butyl)piperazin-1-yl)phenyl)-6-fluoro-3-hydroxypyridin-4-yl)-2-methylphenyl)-3-methyl-1,3-dihydro-2H-imidazol-2-one]",
,0.3 to 30,"CC1=CCN(c2ccc(-c3cc(F)cc(-c4cccc(N5CCN(C(C)(C)C)CC5)c4)c3O)cc2Cl)C1=O [Example 1051, 1-(3″-(4-(tert-Butyl)piperazin-1-yl)-3-chloro-5′-fluoro-2′-hydroxy-[1,1′:3′,1″-terphenyl]-4-yl)-3-methyl-1,5-dihydro-2H-pyrrol-2-one]",
,0.3 to 30,"CC(C)(C)N1CCN(c2cccc(-c3cc(F)cc(-c4ccc(-n5ccsc5=O)c(Cl)c4)c3O)c2)CC1 [Example 1052, 3-(3″-(4-(tert-butyl)piperazin-1-yl)-3-chloro-5′-fluoro-2′-hydroxy-[1,1′:3′,1″-terphenyl]-4-yl)thiazol-2(3H)-one]",
